Test results as given in patent US20220332758A1, “PEPTIDE-BASED COMPOSITIONS AND METHODS FOR TREATING ALZHEIMER'S DISEASE” (Board of Regents, The Universityof Texas System, priority 2019, published 2022).
“Also recorded” adds a separate entry of the source.

How the values were obtained:
20S proteasome = 20S proteasome (Homo sapiens, UniProt P25787+P60900); conditions: cited from earlier work
[1] = system: APP, BACE1 and Aβ42 levels; experiment: Immunoblot of APP and BACE1 and Aβ42 Elisa in hAPP(J20) mice; assay type: in vivo, mouse; conditions: 14 days treatment
[2] = target: T1, proteasome activity in CNS of non-transgenic mice (Mus musculus, UniProt P49722+Q9QUM9); experiment: Proteasome activity in CNS of mice after IP injection; assay type: in vivo
T1 construct: from tissue; host or cells: CNS of non-transgenic mice
Description: Plate-based proteasome activity assay. Samples were homogenized by pestle in 100 μL chilled proteasome buffer (50 mM Tris, 5 mM MgCl2, 1 mM DTT, pH 7.4, vortexed and then centrifuged at 21,000 g at 4° C. for 15 minutes and supernatant transferred. Protein content was recorded by Bradford assay and samples diluted as appropriate. In a black 96-well plate, 10 μL of samples were added to 80 μL proteasome buffer supplemented with addition of 5 mM ATP for measuring 26S proteasome activity. Finally, 50 μM Suc-LLVY-AMC fluorogenic substrate in 10 μL proteasome buffer was added to each well to measure chymotrypsin-like activity. The plate was incubated at 37° C. in a SpectrumMax M2 plate reader for four hours with fluorescence measured every 10 minutes with 355 nm excitation and reading 460 nm emission. Total proteasome activity per sample was defined as the gradient of the linear trendline over this incubation period.

hAPP(J20) mice = experiment: Novel object recognition assay in hAPP(J20) mice; assay type: in vivo, mouse; conditions: 14 days IP injection, 1 mg/kg, listed as Tat-TOD
Description: Novel object recognition test. To measure recognition of a previously encountered object, animals are placed in an opacified rat cage with bedding for 10 min. The following (training) day, mice are returned to the chamber, which now contains two identical objects, and allowed to explore the arena for 5 minutes. Percent of time exploring each object is recorded using TopScan. During testing (4 hours after training) one of the objects in the box is replaced with a new object and the side of the replaced object randomized amongst animals. Mice are given 5 mins to explore the two objects, and percent time exploring each object is recorded using TopScan. A discrimination ratio calculated as (tnovel−tfamiliar)/(tnovel+tfamiliar) is used as a measure of retention of the priorly encountered object (positive and negative discrimination ratio values indicate a preference for exploration of the novel and familiar objects, respectively).
The compounds were tested as follows: in neuroblast MC65 cell culture model with overexpressed C99 fragment of amyloid precursor protein (APP) upon tetracycline withdrawal or with external APP added; and in fruit fly (D. melanogaster) model of AD with overexpressed APP and BACE1. The compounds (1 μM) were mixed with food. Flies were trained to recognize “positive” and “negative” odors (olfaction aversion). […]

[3] = target: T2, purified human 26S proteasome (Homo sapiens, UniProt P25787+P60900); experiment: In-gel overlay activity on non-denaturing gel, 26S proteasome; assay type: biochemical; conditions: 1 microM, 15 min, 100 microM Suc-LLVY-MCA
T2 construct: purchased Boston Biochemicals (Boston Biochem)
Description: (§1) Purified human 20S and 26S proteasomes were separated on non-denaturing polyacrylamide gel. The gel was overlayed with reaction buffer containing 100 microM fluorogenic peptide substrate Suc-LLVY-MCA (SEQ ID NO: 14) and 1% of vehicle solvent (DMSO) or the substrate and 1 microM Tat1 8,9 TOD. The gel was photographed after 15 min of incubation and then stained for the total protein content with Coomassie Brilliant Blue, and photographed. […] The protein content was the same for the control and Tat-overlayed sets. The activities of both 26S and 20S are enhanced by Tat1 8,9 TOD. The enhanced activity of 26S was not the result of Tat1 8,9 TOD—induced breaking of the 26S assembly into its components (19S and 20S) and activation of the released 20S catalytic core that still remains in the gel together with the whole 26S assembly. […] Traces of the 20S in both control 26S preparation and preparation pre-incubated with Tat1 8,9 TOD.

[4] = target: T3, purified human 20S proteasome (Homo sapiens, UniProt P25787+P60900); experiment: In-gel overlay activity on non-denaturing gel, 20S proteasome; assay type: biochemical; conditions: 1 microM, 15 min, 100 microM Suc-LLVY-MCA
T3 construct: purified from erythrocytes; purchased Boston Biochem, Inc. or Enzo Life Sciences, Inc; host or cells: human erythrocytes
Description: as §1

MC65 cells = experiment: Cell death in MC65 AD cell model under tetracycline withdrawal (WST-1 viability); assay type: cell-based, human
Description: Cell culture. Cells were cultured in EMEM (SK-N-SH), DMEM (MC65) supplemented with 10% heat-inactivated fetal bovine serum and antibiotics (100 U mL^−1 penicillin, 100 μg mL^−1 streptomycin, and 0.25 μg mL^−1 of amphotericin B; Gibco-Invitrogen). Incubators were maintained at 5% CO2, and 37° C. Medium was replaced every 3-4days. For most experiments, cells were seeded at 100,000 cells mL^−1 in either 6-well or 96 well plates 24 h prior to assay. In most cases, media was replaced with serum free optimem media 24 h prior to assay.
Cell viability. Cell maintained in a clear 96 well plate. On the day of assay, 10 μl of WST-1 reagent (11644807001, Sigma Aldrich) was added to each well and cells incubated in a 37° C. 5% CO2 incubator for 2-4 hours. Absorbance was measured at 450 nm using a gemini series spectrophotometer.
The compounds were tested as follows: in neuroblast MC65 cell culture model with overexpressed C99 fragment of amyloid precursor protein (APP) upon tetracycline withdrawal or with external APP added; and in fruit fly (D. melanogaster) model of AD with overexpressed APP and BACE1. The compounds (1 μM) were mixed with food. Flies were trained to recognize “positive” and “negative” odors (olfaction aversion). The compounds were also treated in hAPP (J20) mice which overexpress a familial variant of APP. The compounds were injected for 14 days (1 mg/kg). […]

N=C(N)NCCCC(NC(=O)CN)C(=O)NC(CCCCN)C(=O)NC(CCCCN)C(=O)NC(CCCNC(=N)N)C(=O)NC(CCCNC(=N)N)C(=O)NC(CCC(N)=O)C(=O)N1Cc2ccccc2C[C@H]1C(=O)N1C(C(=O)NC(CCCNC(N)N)C(=O)N2CCCC2C(=O)NC(CO)C(=O)O)CC2CCCCC21 (some centres unmarked) [(5), GRKKRRQ-TOD-RPS]
degradation by 20S proteasome (20S proteasome): resistant to degradation
APP protein levels [1]: decline in both APP and BACE1 protein levels
protein levels of BACE1 [1]: significantly reduces
protein levels of β-amyloid [1]: significantly reduces
proteasome activity in the central nervous system ([2]; 24 hours after intraperitoneal injection): significantly enhances proteasome activity
blood-brain-barrier penetration ([2]; mice, IP injection): stably penetrates the blood-brain-barrier
learning and memory, novel object recognition (hAPP(J20) mice): efficiently explore their surroundings to recognize novel objects; also recorded: significantly enhances learning and memory
26S activity in gel overlay [3]: enhanced
20S activity in gel overlay [4]: enhanced
survival of neuroblasts overexpressing APP (MC65 cells; 1 μM): improves survival
cell death under tetracycline withdrawal (MC65 cells; MC65, WST1 viability assay): significantly reduces cell death
